Source: patent US20100298141A1, “SUBSTITUTED PYRIDINE N-OXIDE HERBICIDES” (E. I. DU PONT DE NEMOURS AND COMPANY, priority 2007, published 2010)

How the values were obtained:
[1] = test system: redroot pigweed; experiment: Test A pre-/postemergence greenhouse test; type: in vivo, Amaranthus retroflexus; settings: for Pigweed plant response rating: 0 to 100 scale
Procedure, shortened: (§1)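 Seeds sown in a loam soil–sand blend got a preemergence directed soil spray of compound in a non-phytotoxic solvent mixture containing surfactant. Postemergence sprays of the same formulation went at the same time onto plants 2–10 cm tall at the one- to two-leaf stage. Injury was scored visually against untreated controls after about ten days in the greenhouse.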

[2] = test system: corn; experiment: Test A pre-/postemergence greenhouse test; type: in vivo, Zea mays; settings: for Corn plant response rating: 0 to 100 scale
Procedure, shortened: as §1

[3] = test system: blackgrass; experiment: Test C pre-/postemergence test; type: in vivo, Alopecurus myosuroides
Procedure, shortened: (§2)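 Test chemicals were formulated with surfactant in a non-phytotoxic solvent and sprayed both on freshly planted seeds (preemergence) and on 1- to 4-leaf plants of 2–18 cm (postemergence). Flooded-paddy pots received compound directly into 3 cm of standing water, maintained for the test.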

[4] = test system: wheat; experiment: Test C pre-/postemergence test; type: in vivo, Triticum aestivum
Procedure, shortened: as §2

[5] = test system: wild oat; experiment: Test C pre-/postemergence test; type: in vivo, Avena fatua
Procedure, shortened: as §2

[6] = test system: catchweed bedstraw; experiment: Test C pre-/postemergence test; type: in vivo, Galium aparine
Procedure, shortened: as §2

[7] = test system: bermudagrass; experiment: Test C pre-/postemergence test; type: in vivo, Cynodon dactylon
Procedure, shortened: as §2

[8] = test system: Surinam grass; experiment: Test C pre-/postemergence test; type: in vivo, Brachiaria decumbens
Procedure, shortened: as §2

[9] = test system: crabgrass; experiment: Test C pre-/postemergence test; type: in vivo, Digitaria sanguinalis
Procedure, shortened: as §2

[10] = test system: kochia; experiment: Test C pre-/postemergence test; type: in vivo, Kochia scoparia
Procedure, shortened: as §2

[11] = test system: eastern black nightshade; experiment: Test C pre-/postemergence test; type: in vivo, Solanum ptycanthum
Procedure, shortened: as §2

[12] = test system: pigweed; experiment: Test C pre-/postemergence test; type: in vivo, Amaranthus retroflexus
Procedure, shortened: as §2

[13] = test system: common (oilseed) sunflower; experiment: Test C pre-/postemergence test; type: in vivo, Helianthus annuus
Procedure, shortened: as §2

[14] = test system: velvetleaf; experiment: Test C pre-/postemergence test; type: in vivo, Abutilon theophrasti
Procedure, shortened: as §2

[15] = test system: rice; experiment: Test C flooded paddy test; type: in vivo, Oryza sativa; settings: Flood
Procedure, shortened: (§3)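 Flooded 3 cm over soil; compound into paddy water; depth kept constant. Greenhouse 13–15 d.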

[16] = test system: duck salad; experiment: Test C flooded paddy test; type: in vivo, Heteranthera limosa; settings: Flood
Procedure, shortened: as §3

[17] = test system: barnyardgrass; experiment: Test C flooded paddy test; type: in vivo, Echinochloa crus-galli; settings: Flood
Procedure, shortened: as §3

[18] = Postemergence, 125 g ai/ha, 0 to 100 scale where 0 is no effect and 100 is complete control
[19] = Postemergence, 500 g ai/ha, 0 is no effect, 100 is complete control
[20] = Preemergence, 125 g ai/ha, 0 no effect, 100 complete control
[21] = Preemergence, 500 g ai/ha, 0 no effect, 100 complete control
[22] = 62 g ai/ha, Preemergence, scale 0 to 100
[23] = 125 g ai/ha, preemergence, scale 0 (no effect) to 100 (complete control)
[24] = Preemergence, 31 g ai/ha, scale 0 to 100 (0 no effect, 100 complete control)
[25] = preemergence, 250 g ai/ha, scale 0 (no effect) to 100 (complete control)
[26] = 62 g ai/ha, scale 0 to 100 (0 no effect, 100 complete control)
[27] = 250 g ai/ha, scale 0 to 100, 0 no effect, 100 complete control, 13 to 15 days

`C#CCOc1c(CS(=O)(=O)c2cccc[n+]2[O-])c(C(F)(F)F)nn1C` [Compound 103] was tested, and the “Plant response rating, Pigweed” value [1, 18] was 30, the “Pigweed plant response rating” value [1, 19] was 60 and the “Pigweed plant response rating” value [1, 20] was 60. For the same compound, the “Pigweed plant response rating” value [1, 21] was 100, the “Plant response rating, Corn” value [2, 18] was 0 and the “Corn plant response rating” value [2, 19] was 60. For the same compound, the “Corn plant response rating” value [2, 20] was 0, the “Corn plant response rating” value [2, 21] was 60 and the “Blackgrass plant response rating” value [3, 22] was 100. The “Blackgrass plant response rating” value [3, 23] was 100, the “Plant response rating, Blackgrass” value [3, 24] was 100 and the “Blackgrass plant response rating” value [3, 25] was 100. The “Wheat plant response rating” value [4, 22] was 0, the “Wheat plant response rating” value [4, 23] was 25 and the “Plant response rating, Wheat” value [4, 24] was 0. For the same compound, the “Wheat plant response rating” value [4, 25] was 98, the “Oat, Wild plant response rating” value [5, 22] was 60 and the “Oat, Wild plant response rating” value [5, 23] was 100. For the same compound, the “Plant response rating, Oat, Wild” value [5, 24] was 40, the “Oat, Wild plant response rating” value [5, 25] was 100 and the “Galium plant response rating” value [6, 22] was 98. The “Galium plant response rating” value [6, 23] was 98, the “Galium plant response rating” value [6, 25] was 100 and the “Bermudagrass plant response rating” value ([7]; 62 g ai/ha, Preemergence, scale 0 to 100 (0 no effect, 100 complete control)) was 100. For the same compound, the “Bermudagrass plant response rating” value [7, 23] was 100, the “Plant response rating, Bermudagrass” value [7, 24] was 40 and the “Bermudagrass plant response rating” value [7, 25] was 100. For the same compound, the “Surinam Grass plant response rating” value [8, 22] was 80, the “Surinam Grass plant response rating” value [8, 23] was 90 and the “Plant response rating, Surinam Grass” value [8, 24] was 0. The “Surinam Grass plant response rating” value [8, 25] was 95, the “Crabgrass, Large plant response rating” value [9, 22] was 98 and the “Crabgrass, Large plant response rating” value [9, 23] was 100. For the same compound, the “Plant response rating, Crabgrass, Large” value [9, 24] was 90, the “Crabgrass, Large plant response rating” value [9, 25] was 100 and the “Kochia plant response rating” value [10, 22] was 0. For the same compound, the “Kochia plant response rating” value [10, 23] was 100, the “Kochia plant response rating” value [10, 25] was 100 and the “Nightshade plant response rating” value [11, 22] was 90. For the same compound, the “Nightshade plant response rating” value [11, 23] was 90, the “Plant response rating, Nightshade” value [11, 24] was 90 and the “Nightshade plant response rating” value [11, 25] was 98. The “Pigweed plant response rating” value [12, 22] was 100, the “Pigweed plant response rating” value [12, 23] was 100 and the “Plant response rating, Pigweed” value [12, 24] was 60. For the same compound, the “Pigweed plant response rating” value [12, 25] was 100, the “Sunflower plant response rating” value [13, 22] was 35 and the “Sunflower plant response rating” value [13, 23] was 50. The “Plant response rating, Sunflower” value [13, 24] was 35, the “Sunflower plant response rating” value [13, 25] was 90 and the “Velvetleaf plant response rating” value [14, 22] was 55. For the same compound, the “Velvetleaf plant response rating” value [14, 23] was 80, the “Plant response rating, Velvetleaf” value [14, 24] was 0 and the “Velvetleaf plant response rating” value [14, 25] was 100. The “Plant response rating, Rice” value [15, 26] was 0, the “Plant response rating, Rice” value [15, 27] was 0 and the “Plant response rating, Ducksalad” value [16, 26] was 20. For the same compound, the “Plant response rating, Ducksalad” value [16, 27] was 70, the “Plant response rating, Barnyardgrass” value [17, 26] was 0 and the “Plant response rating, Barnyardgrass” value [17, 27] was 0.
